Patent publication US11491134B2, “Composition for inhibiting skin cell proliferation and/or anti-inflammation method for inhibiting skin cell proliferation and/or anti-inflammation and method for treating skin diseases and/or inflammatory diseases” (Industrial Technology Research Institute, priority 2019, dated 2022)

Test system: keratinocytes, HaCaT cells
Assay: Inhibition rate on keratinocyte (HaCaT cell) proliferation, MTT
Type: cell-based
Conditions: Homo sapiens
Protocol: Dimethyl sulfoxide (DMSO) was used as a solvent to prepare apigenin test samples with different concentrations and luteolin test samples with different concentrations. 9 batches of experiments were performed, which respectively were Batch 1 to Batch 9. There were 6 independent experiments in each batch of experiments. In each independent experiment, inhibition rate of an apigenin test sample with a specific concentration on keratinocyte proliferation and inhibition rate of a luteolin test sample with a specific concentration on keratinocyte proliferation were determined, and inhibition rate of a combination of an apigenin test sample with the said specific concentration and a luteolin test sample with the said specific concentration on keratinocyte proliferation was determined. Between the independent experiments, concentrations of apigenin test samples used were different, and concentrations of luteolin test samples used were also different, however, mole ratios or weight ratios of apigenin test samples to luteolin test samples were the same. Moreover, between the batches of experiments, mole ratios or weight ratios of apigenin test samples to luteolin test samples were different. 5×10^3 keratinocytes, HaCaT cells, were inoculated in a 96-well culture plate and then placed in a 37° C. and 5% CO2 incubator for culturing overnight, and cell numbers at this time point (T0) was used as a benchmark for cell proliferation. After overnight culture, a test sample was added to the cells in the culture plate (refer to Table 1, and the cells of the control group were only treated with dimethyl sulfoxide) for co-culturing for 48 hours (T48). After that, the supernatant in the culture plate was removed. After the supernatant was removed, 50 μL MTT solution (0.5 mg/mL; Life Technologies Cat. No. M-6494) was added to cells and then the culture plate was placed in a 37° C. and 5% CO2 incubator for culturing for 1.5 hours. After that, 150 μL DMSO (J. T. Baker, Cat. No. 9224-03) was added to the cells in the culture plate and shaken for 5 minutes. Thereafter, the absorbance of each well of the culture plate was determined at 570 nm by a continuous wavelength microplate reader, and inhibition rate on cell proliferation was calculated through the following formula: Inhibition rate on cell proliferation=T48 Control group570 nm−T48 Experimental group570 nm)/(T48 Control group570 nm−T0 Control group570 nm) In this experiment, the synergistic effects of apigenin and luteolin were evaluated by CalcuSyn software (BIOSOFT). CalcuSyn software is an analysis software which is commonly used to analyze the drug dosage effect of single drug and multiple drugs at present. CalcuSyn software can be used to analyze drug complex interactions and automatically quantify various phenomena such as synergism and inhibition. CalcuSyn software can process the data of individual drugs and combination drugs with constant-ratio or on-constant-ratio, and can evaluate the interaction of combination drugs by the combination index (CI) (Chou and Talalay, Adv. Enzyme Regul. 22:27-55 (1984) calculated by CalcuSyn software. Calculation formula for the combination index is shown in the following: Combination index=C1/IC1+C2/IC2 C1 and C2 are the respective concentrations of the first compound and the second compound at which the activity of achieving a specific physiological or medical purpose is 50% (or 75%, or 90%) when the first compound and the second compound are analyzed in combination; IC1 and IC2 are the respective concentrations at which the activity of achieving a specific physiological or medical purpose of the first compound and the second compound is 50% (or 75%, or 90%) when the first compound and the second compound are independently analyzed. […]

O=c1cc(-c2ccc(O)c(O)c2)oc2cc(O)cc(O)c12 [Luteolin, luteolin]
inhibition at 3.125 µM (Batch 1, luteolin 3.125 μM/0.89 μg/mL): 0%
inhibition at 6.25 µM (Batch 1, luteolin 6.25 μM/1.79 μg/mL): 0.9%
inhibition at 12.5 µM (Batch 1, luteolin 12.5 μM/3.58 μg/mL): 17.2%
inhibition at 25 µM (Batch 1, luteolin 25 μM/7.16 μg/mL): 44.6%
inhibition at 50 µM (Batch 1, luteolin 50 μM/14.31 μg/mL): 67.7%
inhibition at 100 µM (Batch 1, luteolin 100 μM/28.62 μg/mL): 101%
inhibition at 1.5625 µM (Batch 2, luteolin 1.5625 μM/0.45 μg/mL): 11.3%
inhibition at 3.125 µM (Batch 2, luteolin 3.125 μM/0.89 μg/mL): 5.1%
inhibition at 6.25 µM (Batch 2, luteolin 6.25 μM/1.79 μg/mL): 19.6%
inhibition at 12.5 µM (Batch 2, luteolin 12.5 μM/3.58 μg/mL): 35%
inhibition at 25 µM (Batch 2, luteolin 25 μM/7.16 μg/mL): 53.8%
inhibition at 50 µM (Batch 2, luteolin 50 μM/14.31 μg/mL): 75.2%
inhibition at 0.625 µM (Batch 3, luteolin 0.625 μM/0.18 μg/mL): 1.9%
inhibition at 1.25 µM (Batch 3, luteolin 1.25 μM/0.36 μg/mL): 2.8%
inhibition at 2.5 µM (Batch 3, luteolin 2.5 μM/0.72 μg/mL): 4.3%
inhibition at 5 µM (Batch 3, luteolin 5 μM/1.43 μg/mL): 13.7%
inhibition at 10 µM (Batch 3, luteolin 10 μM/2.86 μg/mL): 31.9%
inhibition at 20 µM (Batch 3, luteolin 20 μM/5.72 μg/mL): 55.6%
inhibition at 0.3125 µM (Batch 4, luteolin 0.3125 μM/0.09 μg/mL): 0.4%
inhibition at 0.625 µM (Batch 4, luteolin 0.625 μM/0.18 μg/mL): 0%
inhibition at 1.25 µM (Batch 4, luteolin 1.25 μM/0.36 μg/mL): 0%
inhibition at 2.5 µM (Batch 4, luteolin 2.5 μM/0.72 μg/mL): 0%
inhibition at 5 µM (Batch 4, luteolin 5 μM/1.43 μg/mL): 0.8%
inhibition at 10 µM (Batch 4, luteolin 10 μM/2.86 μg/mL): 6.6%
inhibition at 0.15625 µM (Batch 5, luteolin 0.15625 μM/0.04 μg/mL): 11.4%
inhibition at 0.3125 µM (Batch 5, luteolin 0.3125 μM/0.09 μg/mL): 14%
inhibition at 0.625 µM (Batch 5, luteolin 0.625 μM/0.18 μg/mL): 4.3%
inhibition at 1.25 µM (Batch 5, luteolin 1.25 μM/0.36 μg/mL): 0%
inhibition at 2.5 µM (Batch 5, luteolin 2.5 μM/0.72 μg/mL): 0%
inhibition at 5 µM (Batch 5, luteolin 5 μM/1.43 μg/mL): 3.3%
inhibition at 3.125 µM (Batch 6, luteolin 3.125 μM/0.89 μg/mL): 0%
inhibition at 6.25 µM (Batch 6, luteolin 6.25 μM/1.79 μg/mL): 0.6%
inhibition at 12.5 µM (Batch 6, luteolin 12.5 μM/3.58 μg/mL): 18.5%
inhibition at 25 µM (Batch 6, luteolin 25 μM/7.16 μg/mL): 42.2%
inhibition at 50 µM (Batch 6, luteolin 50 μM/14.31 μg/mL): 57.8%
inhibition at 100 µM (Batch 6, luteolin 100 μM/28.62 μg/mL): 94.2%
inhibition at 3.125 µM (Batch 7, luteolin 3.125 μM/0.89 μg/mL): 8.6%
inhibition at 6.25 µM (Batch 7, luteolin 6.25 μM/1.79 μg/mL): 19%
inhibition at 12.5 µM (Batch 7, luteolin 12.5 μM/3.58 μg/mL): 37.5%
inhibition at 25 µM (Batch 7, luteolin 25 μM/7.16 μg/mL): 55.1%
inhibition at 50 µM (Batch 7, luteolin 50 μM/14.31 μg/mL): 70.1%
inhibition at 100 µM (Batch 7, luteolin 100 μM/28.62 μg/mL): 108%
inhibition at 3.125 µM (Batch 8, luteolin 3.125 μM/0.89 μg/mL): 5.2%
inhibition at 6.25 µM (Batch 8, luteolin 6.25 μM/1.79 μg/mL): 13.8%
inhibition at 12.5 µM (Batch 8, luteolin 12.5 μM/3.58 μg/mL): 33.5%
inhibition at 25 µM (Batch 8, luteolin 25 μM/7.16 μg/mL): 50.7%
inhibition at 50 µM (Batch 8, luteolin 50 μM/14.31 μg/mL): 63.6%
inhibition at 100 µM (Batch 8, luteolin 100 μM/28.62 μg/mL): 100%
inhibition at 3.125 µM (Batch 9, luteolin 3.125 μM/0.89 μg/mL): 4.2%
inhibition at 6.25 µM (Batch 9, luteolin 6.25 μM/1.79 μg/mL): 11%
inhibition at 12.5 µM (Batch 9, luteolin 12.5 μM/3.58 μg/mL): 30.1%
inhibition at 25 µM (Batch 9, luteolin 25 μM/7.16 μg/mL): 47.8%
inhibition at 50 µM (Batch 9, luteolin 50 μM/14.31 μg/mL): 62%
inhibition at 100 µM (Batch 9, luteolin 100 μM/28.62 μg/mL): 104%
